The inhibition is how much of the control response was suppressed. Higher therefore signals a response far below the control. As a reminder, the IC50 is the point on the concentration scale where inhibition reaches its midpoint.

For experiment [1], the target named is Tyrosine-protein kinase Lck (Homo sapiens) (UniProt P06239). Description: Inhibition of LCK (unknown origin) at 50 nM by Z'LYTE screening method relative to control.
The target of experiment [2] is T1, Serine/threonine-protein kinase TBK1 (Homo sapiens) (UniProt Q9UHD2).
T1 sequence (whole entry): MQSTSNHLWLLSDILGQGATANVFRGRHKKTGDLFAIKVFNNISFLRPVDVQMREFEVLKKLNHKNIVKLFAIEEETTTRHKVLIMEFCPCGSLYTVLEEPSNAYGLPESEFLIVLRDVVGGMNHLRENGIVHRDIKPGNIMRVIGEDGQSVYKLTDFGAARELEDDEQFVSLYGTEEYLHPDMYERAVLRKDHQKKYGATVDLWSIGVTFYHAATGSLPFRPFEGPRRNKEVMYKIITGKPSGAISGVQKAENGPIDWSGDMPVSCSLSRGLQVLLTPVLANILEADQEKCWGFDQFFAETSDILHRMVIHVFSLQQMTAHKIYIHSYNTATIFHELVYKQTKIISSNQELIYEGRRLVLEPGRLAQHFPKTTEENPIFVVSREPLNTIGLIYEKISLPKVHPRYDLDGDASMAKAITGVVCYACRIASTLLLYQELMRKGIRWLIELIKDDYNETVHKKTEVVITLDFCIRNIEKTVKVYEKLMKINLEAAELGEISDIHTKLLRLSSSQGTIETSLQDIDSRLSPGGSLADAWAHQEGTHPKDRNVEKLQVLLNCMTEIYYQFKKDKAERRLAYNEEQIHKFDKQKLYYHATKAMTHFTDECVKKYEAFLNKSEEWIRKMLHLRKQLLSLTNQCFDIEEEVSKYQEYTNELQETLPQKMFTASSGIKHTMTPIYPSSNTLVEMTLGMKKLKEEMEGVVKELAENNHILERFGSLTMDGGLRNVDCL
Description: Inhibition of TBK1 (unknown origin) at 50 nM by Z'LYTE screening method relative to control.

The test system of another experiment is MDA-MB-231. Nature of the experiment: Cytotoxicity against human MDA-MB-231/M cells assessed as reduction in cell viability incubated for 96 hrs by MTT assay. Type of experiment: functional, cell-based. Particulars: MDA-MB-231, 96 h. For orientation: Tetrazolium assays rely on reduction of a dye to a coloured formazan, in cell work by metabolically active cells.

The target in experiment [3] is Glycogen synthase kinase-3 beta (Homo sapiens) (UniProt P49841). Description: Inhibition of GSK3b (unknown origin) at 50 nM by Z'LYTE screening method relative to control.
Experiment [4] has as its target T2, Serine/threonine-protein kinase D3 (Homo sapiens) (UniProt O94806).
T2 sequence (whole entry): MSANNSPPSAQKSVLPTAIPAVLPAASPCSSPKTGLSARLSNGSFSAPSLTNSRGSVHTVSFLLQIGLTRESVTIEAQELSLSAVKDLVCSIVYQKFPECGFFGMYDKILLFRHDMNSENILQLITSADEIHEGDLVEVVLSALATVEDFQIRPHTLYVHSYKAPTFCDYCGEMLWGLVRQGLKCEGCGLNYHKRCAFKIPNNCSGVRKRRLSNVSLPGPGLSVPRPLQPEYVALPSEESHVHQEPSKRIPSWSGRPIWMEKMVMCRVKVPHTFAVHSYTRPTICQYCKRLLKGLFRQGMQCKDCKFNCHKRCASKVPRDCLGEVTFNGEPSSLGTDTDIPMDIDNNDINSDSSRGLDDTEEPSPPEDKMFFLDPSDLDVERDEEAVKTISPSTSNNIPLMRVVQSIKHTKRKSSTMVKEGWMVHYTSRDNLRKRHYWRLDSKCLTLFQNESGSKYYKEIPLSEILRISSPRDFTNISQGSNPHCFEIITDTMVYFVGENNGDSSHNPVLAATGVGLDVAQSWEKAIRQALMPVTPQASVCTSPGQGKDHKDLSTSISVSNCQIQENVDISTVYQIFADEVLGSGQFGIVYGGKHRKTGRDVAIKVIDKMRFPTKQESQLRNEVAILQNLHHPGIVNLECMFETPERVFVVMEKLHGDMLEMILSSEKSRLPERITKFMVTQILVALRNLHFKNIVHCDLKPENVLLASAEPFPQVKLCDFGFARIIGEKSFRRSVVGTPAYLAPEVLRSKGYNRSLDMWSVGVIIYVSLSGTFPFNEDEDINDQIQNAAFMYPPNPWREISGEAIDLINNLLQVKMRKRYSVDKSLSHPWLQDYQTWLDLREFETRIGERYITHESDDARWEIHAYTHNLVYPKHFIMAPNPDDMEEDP
Nature of the experiment: Inhibition of PKCnu (unknown origin) at 50 nM by Z'LYTE screening method relative to control.

In experiment [5] the target is Ribosomal protein S6 kinase beta-1 (Homo sapiens) (UniProt P23443). Description: Inhibition of p70S6K (unknown origin) at 50 nM by Z'LYTE screening method relative to control.
Experiment [6] has as its target 3-phosphoinositide-dependent protein kinase 1 (Homo sapiens) (UniProt O15530). Nature of the experiment: Inhibition of PDK1 (unknown origin) at 50 nM by Z'LYTE screening method relative to control.
Experiment [7] concerns the target Ribosomal protein S6 kinase alpha-1 (Homo sapiens) (UniProt Q15418). Description: Inhibition of RPS6KA1 (unknown origin) at 50 nM by Z'LYTE screening method relative to control.
In experiment [8] the target is Proto-oncogene tyrosine-protein kinase Src (Homo sapiens) (UniProt P12931). Description: Inhibition of SRC (unknown origin) at 50 nM by Z'LYTE screening method relative to control.
For experiment [9], the target named is Protein kinase C theta type (Homo sapiens, UniProt Q04759). Nature of the experiment: Inhibition of PKCtheta (unknown origin) at 50 nM by Z'LYTE screening method relative to control.
For experiment [10], the target named is Serine/threonine-protein kinase B-raf (Homo sapiens) (UniProt P15056). Description: Inhibition of BRaf (unknown origin) at 50 nM by Z'LYTE screening method relative to control.
For experiment [11], the target named is Mitogen-activated protein kinase 8 (Homo sapiens) (UniProt P45983). Nature of the experiment: Inhibition of MAPK8 (unknown origin) at 50 nM by Z'LYTE screening method relative to control.
The target in experiment [12] is Proto-oncogene tyrosine-protein kinase receptor Ret (Homo sapiens) (UniProt P07949). Description: Inhibition of RET (unknown origin) at 50 nM by Z'LYTE screening method relative to control.
Experiment [13] concerns the target Vascular endothelial growth factor receptor 1 (Homo sapiens) (UniProt P17948). Description: Inhibition of FLT1/VEGFR1(unknown origin) at 50 nM by Z'LYTE screening method relative to control.
Experiment [14] deals with Platelet-derived growth factor receptor alpha (Homo sapiens) (UniProt P16234). Description: Inhibition of PDGFRalpha (unknown origin) at 50 nM by Z'LYTE screening method relative to control.
Experiment [15] deals with Protein kinase C eta type (Homo sapiens, UniProt P24723). Nature of the experiment: Inhibition of PKCeta (unknown origin) at 50 nM by Z'LYTE screening method relative to control.
Experiment [16] concerns the target Protein kinase C gamma type (Homo sapiens) (UniProt P05129). Description: Inhibition of PKC gamma (unknown origin) at 50 nM by Z'LYTE screening method relative to control.

Chain of Vascular endothelial growth factor receptor 1 (Homo sapiens) (P17948 whole entry): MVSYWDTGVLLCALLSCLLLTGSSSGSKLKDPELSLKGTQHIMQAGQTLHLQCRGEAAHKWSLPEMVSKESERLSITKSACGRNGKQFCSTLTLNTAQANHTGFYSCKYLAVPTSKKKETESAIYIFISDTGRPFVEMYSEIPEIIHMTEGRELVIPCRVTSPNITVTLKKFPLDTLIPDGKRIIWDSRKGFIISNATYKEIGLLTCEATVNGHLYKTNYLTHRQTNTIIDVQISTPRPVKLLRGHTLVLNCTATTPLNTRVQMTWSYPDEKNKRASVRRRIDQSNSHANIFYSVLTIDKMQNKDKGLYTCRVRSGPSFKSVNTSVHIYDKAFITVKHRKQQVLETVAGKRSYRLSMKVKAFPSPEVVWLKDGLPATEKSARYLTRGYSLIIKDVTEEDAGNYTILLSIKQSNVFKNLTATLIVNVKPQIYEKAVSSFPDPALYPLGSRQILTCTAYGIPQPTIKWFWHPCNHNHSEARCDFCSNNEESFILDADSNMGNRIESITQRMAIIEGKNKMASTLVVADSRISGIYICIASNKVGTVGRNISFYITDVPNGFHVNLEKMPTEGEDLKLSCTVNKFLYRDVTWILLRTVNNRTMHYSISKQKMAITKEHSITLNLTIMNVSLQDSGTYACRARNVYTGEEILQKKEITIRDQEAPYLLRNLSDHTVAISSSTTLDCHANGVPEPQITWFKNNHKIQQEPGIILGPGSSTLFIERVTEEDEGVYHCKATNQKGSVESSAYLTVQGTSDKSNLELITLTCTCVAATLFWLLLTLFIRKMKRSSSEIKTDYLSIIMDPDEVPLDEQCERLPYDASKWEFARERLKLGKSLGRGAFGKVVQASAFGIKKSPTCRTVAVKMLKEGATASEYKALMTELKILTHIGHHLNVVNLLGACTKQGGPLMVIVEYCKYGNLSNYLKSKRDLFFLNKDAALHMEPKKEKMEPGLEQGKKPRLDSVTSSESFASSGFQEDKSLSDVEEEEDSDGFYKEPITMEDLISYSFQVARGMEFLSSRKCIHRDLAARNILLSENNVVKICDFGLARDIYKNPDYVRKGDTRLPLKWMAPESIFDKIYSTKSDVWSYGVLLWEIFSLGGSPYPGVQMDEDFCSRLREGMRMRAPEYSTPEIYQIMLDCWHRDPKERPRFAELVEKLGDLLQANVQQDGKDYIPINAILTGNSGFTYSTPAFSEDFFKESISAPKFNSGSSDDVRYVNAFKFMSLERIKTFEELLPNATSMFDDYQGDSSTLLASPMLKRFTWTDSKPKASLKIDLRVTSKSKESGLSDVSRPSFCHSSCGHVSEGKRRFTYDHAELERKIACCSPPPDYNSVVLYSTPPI
Chain of Glycogen synthase kinase-3 beta (Homo sapiens) (P49841 whole entry, looked up): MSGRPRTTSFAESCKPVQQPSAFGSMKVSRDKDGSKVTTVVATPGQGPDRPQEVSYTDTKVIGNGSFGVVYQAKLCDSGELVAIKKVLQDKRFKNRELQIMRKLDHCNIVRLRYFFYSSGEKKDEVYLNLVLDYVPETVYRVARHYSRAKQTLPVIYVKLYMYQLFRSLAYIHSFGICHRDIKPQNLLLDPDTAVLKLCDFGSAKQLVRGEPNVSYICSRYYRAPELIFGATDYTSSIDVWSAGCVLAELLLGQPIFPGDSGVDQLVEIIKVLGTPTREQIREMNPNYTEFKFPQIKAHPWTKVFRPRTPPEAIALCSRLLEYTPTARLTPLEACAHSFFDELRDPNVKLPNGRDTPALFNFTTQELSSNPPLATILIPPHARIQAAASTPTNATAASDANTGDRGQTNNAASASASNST
Chain of Platelet-derived growth factor receptor alpha (Homo sapiens) (P16234 whole entry): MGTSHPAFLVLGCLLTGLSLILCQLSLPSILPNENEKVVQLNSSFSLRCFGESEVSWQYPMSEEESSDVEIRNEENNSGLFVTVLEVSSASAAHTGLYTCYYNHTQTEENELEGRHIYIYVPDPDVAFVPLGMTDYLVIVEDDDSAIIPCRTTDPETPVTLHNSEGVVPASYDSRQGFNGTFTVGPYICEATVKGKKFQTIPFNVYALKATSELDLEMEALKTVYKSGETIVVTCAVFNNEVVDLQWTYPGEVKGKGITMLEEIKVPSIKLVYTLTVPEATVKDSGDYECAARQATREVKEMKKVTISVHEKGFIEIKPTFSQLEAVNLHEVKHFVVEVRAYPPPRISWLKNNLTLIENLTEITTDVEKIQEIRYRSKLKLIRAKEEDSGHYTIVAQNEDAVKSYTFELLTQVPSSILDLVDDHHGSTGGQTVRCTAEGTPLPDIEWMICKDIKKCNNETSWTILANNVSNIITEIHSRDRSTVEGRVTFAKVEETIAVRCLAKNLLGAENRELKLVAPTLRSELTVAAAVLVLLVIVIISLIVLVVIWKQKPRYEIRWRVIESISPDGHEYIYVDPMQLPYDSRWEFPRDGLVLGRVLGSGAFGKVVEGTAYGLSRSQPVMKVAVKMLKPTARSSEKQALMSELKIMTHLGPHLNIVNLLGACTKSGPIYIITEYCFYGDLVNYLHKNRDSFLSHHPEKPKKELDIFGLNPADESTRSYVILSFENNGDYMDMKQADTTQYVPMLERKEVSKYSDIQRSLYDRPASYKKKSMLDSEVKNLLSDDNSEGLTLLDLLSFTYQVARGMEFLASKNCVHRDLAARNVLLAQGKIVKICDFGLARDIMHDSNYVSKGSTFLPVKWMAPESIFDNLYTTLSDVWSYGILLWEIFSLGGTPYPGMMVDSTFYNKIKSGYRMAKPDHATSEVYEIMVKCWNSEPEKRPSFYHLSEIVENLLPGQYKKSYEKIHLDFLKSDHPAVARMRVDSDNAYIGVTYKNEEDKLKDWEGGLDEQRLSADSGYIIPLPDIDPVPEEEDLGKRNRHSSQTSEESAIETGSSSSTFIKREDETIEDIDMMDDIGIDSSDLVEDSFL
Chain of Proto-oncogene tyrosine-protein kinase receptor Ret (Homo sapiens) (P07949 whole entry): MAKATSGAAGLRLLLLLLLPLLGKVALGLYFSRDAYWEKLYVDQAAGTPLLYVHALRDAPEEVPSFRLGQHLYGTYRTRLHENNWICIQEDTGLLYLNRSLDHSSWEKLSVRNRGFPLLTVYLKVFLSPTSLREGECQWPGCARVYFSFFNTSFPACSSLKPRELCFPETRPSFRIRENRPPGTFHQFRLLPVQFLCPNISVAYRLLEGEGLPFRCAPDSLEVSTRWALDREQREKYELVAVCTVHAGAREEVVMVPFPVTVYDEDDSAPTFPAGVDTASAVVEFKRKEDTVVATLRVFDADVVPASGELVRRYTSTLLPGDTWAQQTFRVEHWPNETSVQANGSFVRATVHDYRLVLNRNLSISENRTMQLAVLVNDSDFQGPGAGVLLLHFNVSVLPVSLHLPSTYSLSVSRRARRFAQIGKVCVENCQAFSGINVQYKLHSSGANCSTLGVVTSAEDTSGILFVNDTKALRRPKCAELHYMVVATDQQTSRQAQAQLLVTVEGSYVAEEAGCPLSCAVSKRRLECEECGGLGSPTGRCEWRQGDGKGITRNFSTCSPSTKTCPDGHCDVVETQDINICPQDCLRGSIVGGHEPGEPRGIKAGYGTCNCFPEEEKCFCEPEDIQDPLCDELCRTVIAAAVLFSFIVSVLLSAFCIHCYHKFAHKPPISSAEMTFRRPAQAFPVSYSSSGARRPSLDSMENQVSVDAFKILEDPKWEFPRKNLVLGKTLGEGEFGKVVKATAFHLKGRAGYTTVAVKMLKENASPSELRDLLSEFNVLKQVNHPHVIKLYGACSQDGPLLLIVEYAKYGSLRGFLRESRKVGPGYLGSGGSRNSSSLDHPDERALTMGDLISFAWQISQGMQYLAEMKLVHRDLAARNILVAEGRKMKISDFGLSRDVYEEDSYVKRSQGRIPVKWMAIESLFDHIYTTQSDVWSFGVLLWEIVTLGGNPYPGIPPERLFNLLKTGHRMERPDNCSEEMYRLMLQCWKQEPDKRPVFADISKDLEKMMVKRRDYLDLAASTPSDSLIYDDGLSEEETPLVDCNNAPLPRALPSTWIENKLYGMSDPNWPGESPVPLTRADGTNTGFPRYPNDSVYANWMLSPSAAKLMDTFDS
Chain of Protein kinase C theta type (Q04759 whole entry, looked up): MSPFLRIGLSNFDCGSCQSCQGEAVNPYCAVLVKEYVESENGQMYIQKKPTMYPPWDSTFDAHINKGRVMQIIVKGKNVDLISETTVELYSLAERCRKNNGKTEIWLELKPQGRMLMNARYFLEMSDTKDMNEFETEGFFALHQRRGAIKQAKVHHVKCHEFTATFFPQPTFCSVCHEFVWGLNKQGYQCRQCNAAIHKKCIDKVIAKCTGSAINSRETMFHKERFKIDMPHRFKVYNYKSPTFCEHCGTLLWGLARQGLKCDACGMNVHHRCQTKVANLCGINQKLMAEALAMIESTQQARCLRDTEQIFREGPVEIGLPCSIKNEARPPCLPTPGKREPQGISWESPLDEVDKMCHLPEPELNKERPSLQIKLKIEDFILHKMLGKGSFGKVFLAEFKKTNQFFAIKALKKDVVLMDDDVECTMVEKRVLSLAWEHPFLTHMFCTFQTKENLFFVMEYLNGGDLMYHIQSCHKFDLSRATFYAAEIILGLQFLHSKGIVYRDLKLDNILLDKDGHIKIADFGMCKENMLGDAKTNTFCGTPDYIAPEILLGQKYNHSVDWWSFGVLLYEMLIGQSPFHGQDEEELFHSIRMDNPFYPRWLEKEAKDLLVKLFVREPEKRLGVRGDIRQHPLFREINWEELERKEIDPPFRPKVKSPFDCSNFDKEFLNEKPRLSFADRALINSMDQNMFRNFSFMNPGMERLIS
Chain of Mitogen-activated protein kinase 8 (Homo sapiens) (P45983 whole entry): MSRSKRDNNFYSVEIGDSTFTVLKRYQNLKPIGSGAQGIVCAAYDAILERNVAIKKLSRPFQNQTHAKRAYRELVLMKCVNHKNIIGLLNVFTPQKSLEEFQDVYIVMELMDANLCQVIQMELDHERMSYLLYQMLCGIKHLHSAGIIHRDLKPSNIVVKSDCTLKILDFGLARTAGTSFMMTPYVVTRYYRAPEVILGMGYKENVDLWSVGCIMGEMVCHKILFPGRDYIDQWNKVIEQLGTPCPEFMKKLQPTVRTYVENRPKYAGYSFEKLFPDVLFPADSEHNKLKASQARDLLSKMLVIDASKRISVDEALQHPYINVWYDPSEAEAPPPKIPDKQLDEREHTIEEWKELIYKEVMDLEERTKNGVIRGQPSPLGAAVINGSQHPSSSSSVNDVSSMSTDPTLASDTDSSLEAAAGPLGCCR

In the case of `O=c1c2ccccc2[se]n1-c1nc(NC2CCCCC2)c2nc[nH]c2n1`, the inhibition amounted to 13% in experiment [1]; 0% in experiment [2]; 10% in experiment [3]; 0% in experiment [4]; 1% in [5]; 0% in experiment [6]. Besides, the inhibition came out at 2% in experiment [7]; 3% in experiment [8]; 62% in experiment [9]; 10% in experiment [10]; 0% in experiment [11]; 13% in experiment [12]. Also, the inhibition in [13] was determined as 2%; in [14] it was 16%; in experiment [15], 0%; in [16] it was 45%. For the same compound, the half-inhibitory concentration (IC50) in the experiment on MDA-MB-231 turned out to be 10.2 µM.
With `O=c1c2ccccc2[se]n1-c1nc(N[C@H]2CC[Se]C2)c2nc[nH]c2n1`, the inhibition was 2% in experiment [1]; 0% in experiment [2]; 29% in [3]; 6% in experiment [4]; 3% in experiment [5]; 0% in [6]. Moreover, the inhibition in [7] is 5%; in [8], 0%; in [9] it was 98%; in experiment [10], 0%; in experiment [11], 0%; in experiment [12], 7%. In addition, the inhibition in experiment [13] stood at 0%; in experiment [14], 1%; in experiment [15] it was 6%; in experiment [16], 47%. The IC50 with MDA-MB-231 stood at 1.2 µM.

The values are drawn from ChEMBL document CHEMBL5154740, “Novel Aurora A and Protein Kinase C (α, β1, β2, and θ) Multitarget Inhibitors: Impact of Selenium Atoms on the Potency and Selectivity” (J Med Chem, 2022).
